Assay results taken from ChEMBL document CHEMBL1201862, “PubChem BioAssay data set” (2004).
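Dose response: 5 concentrations. Exposure: 48 h. Format: 96-well plates. Endpoint: linear interpolation; highest concentration if not reached. At the GI50, growth is halved.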 The source made the active and inactive calls. No stated cut-off is given here; in the data, active = GI50 up to about 1.1 µM and inactive = higher.

Assays:
Experiment in all cases: NCI anticancer screen, dose series, 48 h
786-0 = test system: 786-0
A549 = test system: A549
ACHN = test system: ACHN
DU-145 = test system: DU-145
HOP-92 = test system: HOP-92
HT-29 = test system: HT-29
KM12 = test system: KM12
M14 = test system: M14
MOLT-4 = test system: MOLT-4
NCI-H226 = test system: NCI-H226
NCI-H460 = test system: NCI-H460
OVCAR-4 = test system: OVCAR-4
OVCAR-5 = test system: OVCAR-5
PC-3 = test system: PC-3
SF-268 = test system: SF-268
SK-MEL-2 = test system: SK-MEL-2
SN12C = test system: SN12C
U-251 = test system: U-251
UACC-257 = test system: UACC-257
SNB-75 = test system: SNB-75

Structure (SMILES)	GI50 (786-0)	GI50 (A549)	GI50 (ACHN)	GI50 (DU-145)	GI50 (HOP-92)	GI50 (HT-29)	GI50 (KM12)	GI50 (M14)	GI50 (MOLT-4)	GI50 (NCI-H226)	GI50 (NCI-H460)	GI50 (OVCAR-4)	GI50 (OVCAR-5)	GI50 (PC-3)	GI50 (SF-268)	GI50 (SK-MEL-2)	GI50 (SN12C)	GI50 (U-251)	GI50 (UACC-257)	GI50 (SNB-75)
O=C(NCCCc1cn[nH]c(=O)n1)c1cccc2nc3ccccc3nc12	40.7 µM (inactive)	> 100 µM (inactive)	31.6 µM (inactive)	63 µM (inactive)	75 µM (inactive)	> 100 µM (inactive)	> 100 µM (inactive)	> 100 µM (inactive)	33.3 µM (inactive)	> 100 µM (inactive)	> 100 µM (inactive)	> 100 µM (inactive)	> 100 µM (inactive)	> 100 µM (inactive)	91.8 µM (inactive)	> 100 µM (inactive)	86.3 µM (inactive)	36.5 µM (inactive)	> 100 µM (inactive)	–
Clc1sc(Cl)c2c1[C@H](Cl)C[C@@H]2Cl	19.6 µM (inactive)	21.2 µM (inactive)	33.2 µM (inactive)	27.5 µM (inactive)	6.58 µM (inactive)	32.7 µM (inactive)	25.6 µM (inactive)	15.1 µM (inactive)	50.2 µM (inactive)	19.8 µM (inactive)	49.2 µM (inactive)	23.6 µM (inactive)	29.2 µM (inactive)	–	17.8 µM (inactive)	22.5 µM (inactive)	16.8 µM (inactive)	20.9 µM (inactive)	24.3 µM (inactive)	20 µM (inactive)
CC(C)(/C=N\O)NO	> 10 µM (inactive)	> 10 µM (inactive)	> 10 µM (inactive)	> 10 µM (inactive)	> 10 µM (inactive)	> 10 µM (inactive)	> 10 µM (inactive)	> 10 µM (inactive)	> 10 µM (inactive)	> 10 µM (inactive)	> 10 µM (inactive)	> 10 µM (inactive)	> 10 µM (inactive)	> 10 µM (inactive)	> 10 µM (inactive)	> 10 µM (inactive)	> 10 µM (inactive)	> 10 µM (inactive)	> 10 µM (inactive)	–
Brc1ccc(C2(N3CCCCC3)CCCCC2)s1	> 100 µM (inactive)	39 µM (inactive)	51.1 µM (inactive)	56.6 µM (inactive)	19.7 µM (inactive)	23.5 µM (inactive)	28.4 µM (inactive)	24.4 µM (inactive)	16.4 µM (inactive)	–	26.7 µM (inactive)	40.7 µM (inactive)	67 µM (inactive)	34.1 µM (inactive)	48.9 µM (inactive)	19 µM (inactive)	> 100 µM (inactive)	33.1 µM (inactive)	29.8 µM (inactive)	–
O=C1CSC(c2c[nH]c3ccccc23)N1c1ccc(Cl)cc1 (stereo not given)	> 100 µM (inactive)	> 100 µM (inactive)	> 100 µM (inactive)	> 100 µM (inactive)	2.85 µM (inactive)	> 100 µM (inactive)	> 100 µM (inactive)	> 100 µM (inactive)	> 100 µM (inactive)	> 100 µM (inactive)	> 100 µM (inactive)	> 100 µM (inactive)	> 100 µM (inactive)	–	> 100 µM (inactive)	> 100 µM (inactive)	> 100 µM (inactive)	> 100 µM (inactive)	> 100 µM (inactive)	37.1 µM (inactive)
COC(=O)c1c(O)ccc2c1c1c(n2Cc2ccccc2Cl)C(=O)c2ccccc2C1=O	16.6 µM (inactive)	8.69 µM (inactive)	16.5 µM (inactive)	15.5 µM (inactive)	14.8 µM (inactive)	1.17 µM (inactive)	10.1 µM (inactive)	15.5 µM (inactive)	7.03 µM (inactive)	17.7 µM (inactive)	6.78 µM (inactive)	2.93 µM (inactive)	19.5 µM (inactive)	11.5 µM (inactive)	12.4 µM (inactive)	17.4 µM (inactive)	10.2 µM (inactive)	12.6 µM (inactive)	17.9 µM (inactive)	–
CC1CN1c1c(C(=O)/C=C/c2ccc(Cl)cc2)c(-c2ccccc2)nn(C)c1=O (stereo not given)	2.81 µM (inactive)	4.42 µM (inactive)	2.33 µM (inactive)	–	> 10 µM (inactive)	3.65 µM (inactive)	3.3 µM (inactive)	1.95 µM (inactive)	2.24 µM (inactive)	4.99 µM (inactive)	2.28 µM (inactive)	2.61 µM (inactive)	5.47 µM (inactive)	–	3.98 µM (inactive)	2.4 µM (inactive)	3.11 µM (inactive)	2.35 µM (inactive)	3.67 µM (inactive)	2.65 µM (inactive)
COc1ccc(NC2=CC(=O)C(=O)c3ccccc32)nn1	1.86 µM (inactive)	3.1 µM (inactive)	1.66 µM (inactive)	1.45 µM (inactive)	–	1.64 µM (inactive)	0.361 µM (active)	0.281 µM (active)	0.546 µM (active)	2.31 µM (inactive)	1.54 µM (inactive)	1.41 µM (inactive)	1.92 µM (inactive)	2.73 µM (inactive)	1.51 µM (inactive)	1.95 µM (inactive)	1.6 µM (inactive)	1.52 µM (inactive)	1.72 µM (inactive)	–
CCOC(=O)N1Cc2ccoc2C1	> 100 µM (inactive)	43.7 µM (inactive)	> 100 µM (inactive)	–	> 100 µM (inactive)	> 100 µM (inactive)	> 100 µM (inactive)	> 100 µM (inactive)	> 100 µM (inactive)	> 100 µM (inactive)	> 100 µM (inactive)	> 100 µM (inactive)	> 100 µM (inactive)	–	0.769 µM (active)	> 100 µM (inactive)	> 100 µM (inactive)	> 100 µM (inactive)	> 100 µM (inactive)	> 100 µM (inactive)
O=C(CC(=O)C1=CNc2ccccc2S1)C(=O)Nc1ccc(Cl)cc1	> 50 µM (inactive)	> 50 µM (inactive)	> 50 µM (inactive)	–	> 50 µM (inactive)	> 50 µM (inactive)	> 50 µM (inactive)	> 50 µM (inactive)	> 50 µM (inactive)	49.4 µM (inactive)	> 50 µM (inactive)	> 50 µM (inactive)	> 50 µM (inactive)	–	> 50 µM (inactive)	> 50 µM (inactive)	> 50 µM (inactive)	> 50 µM (inactive)	> 50 µM (inactive)	> 50 µM (inactive)
C/C(=C\CNc1ncnc2[nH]c(Cl)nc12)CO	> 100 µM (inactive)	> 100 µM (inactive)	> 100 µM (inactive)	> 100 µM (inactive)	> 100 µM (inactive)	> 100 µM (inactive)	> 100 µM (inactive)	> 100 µM (inactive)	> 100 µM (inactive)	> 100 µM (inactive)	> 100 µM (inactive)	> 100 µM (inactive)	> 100 µM (inactive)	> 100 µM (inactive)	> 100 µM (inactive)	–	> 100 µM (inactive)	–	> 100 µM (inactive)	> 100 µM (inactive)
O=C(CN1CCCC1)Nc1ccc2c(c1)C1Oc3ccccc3CC1CO2 (stereo not given)	24.7 µM (inactive)	41.7 µM (inactive)	–	> 100 µM (inactive)	16.7 µM (inactive)	> 10 µM (inactive)	43.4 µM (inactive)	20.1 µM (inactive)	31.4 µM (inactive)	> 100 µM (inactive)	–	–	30.9 µM (inactive)	24.8 µM (inactive)	67 µM (inactive)	23.9 µM (inactive)	> 100 µM (inactive)	21.2 µM (inactive)	21.2 µM (inactive)	–
CCCCCCCCCCCCCCCCc1c(O)nc(NC#N)nc1C(=O)OC	> 25 µM (inactive)	> 25 µM (inactive)	> 25 µM (inactive)	–	> 25 µM (inactive)	> 25 µM (inactive)	> 25 µM (inactive)	> 25 µM (inactive)	> 25 µM (inactive)	> 25 µM (inactive)	> 25 µM (inactive)	> 25 µM (inactive)	> 25 µM (inactive)	–	> 25 µM (inactive)	> 25 µM (inactive)	> 25 µM (inactive)	> 25 µM (inactive)	> 25 µM (inactive)	> 25 µM (inactive)
NC(=O)c1cc2ccc(O)cc2o/c1=N/NC(=O)c1ccccc1	79.4 µM (inactive)	> 100 µM (inactive)	58.1 µM (inactive)	–	> 100 µM (inactive)	> 100 µM (inactive)	77.1 µM (inactive)	86.5 µM (inactive)	35.1 µM (inactive)	39.4 µM (inactive)	40.2 µM (inactive)	> 100 µM (inactive)	> 100 µM (inactive)	83.2 µM (inactive)	> 100 µM (inactive)	28.2 µM (inactive)	63.7 µM (inactive)	> 100 µM (inactive)	> 100 µM (inactive)	25.9 µM (inactive)
CC(=O)c1cc2ccccc2[n+]([O-])c1N	> 100 µM (inactive)	> 100 µM (inactive)	> 100 µM (inactive)	> 100 µM (inactive)	> 100 µM (inactive)	> 100 µM (inactive)	> 100 µM (inactive)	> 100 µM (inactive)	> 100 µM (inactive)	> 100 µM (inactive)	> 100 µM (inactive)	> 100 µM (inactive)	> 100 µM (inactive)	> 100 µM (inactive)	> 100 µM (inactive)	> 100 µM (inactive)	> 100 µM (inactive)	> 100 µM (inactive)	> 100 µM (inactive)	–
